# Several values for one entry are separate records, joined by “and”; a condition that tells them apart may be missing. Equal entries are not always repeated. Entries after “also recorded” stand apart in the source; their conditions may differ.
# Legend:
# DR1 Transgenic mice [1] = assay: Effect of A12 on CIA in DR1 Transgenic mice (CII plus A12; intravenous A12 after CII-immunization); format: in vivo, mouse; details: for Incidence: arthritis incidence
# Method: Assuming that CII263-270 was key to developing immunity to the intact CII molecule, a number of analog peptides where amino acids within this small segment were substituted with those found in the corresponding sites of nonarthritogenic type I collagen were prepared and tested. […] The APL A12 developed for this study has the following amino acid sequence: LGPKGQTGEBG[IAGNKGDQGPK]GEBGPA (SEQ ID NO: 3) where B=hydroxproline. The core determinant of human CII263-270 is bracketed. The underlined residues are those substituted to produce APL A12. The residues amino terminal and carboxy terminal to the core determinant is from the normal human CII sequence.
# [2] = test system: splenocytes of DR1 transgenic mice; assay: Oral APL A12: IFNγ production by cultured splenocytes of DR1 transgenic mice; format: in vivo, mouse
# [3] = test system: splenocytes and lymph node cells from DR1 Transgenic mice; assay: Cytokine secretion by splenocytes and lymph node cells of DR1 Transgenic mice immunized with CII or Analog A12; format: cell-based, mouse
# Description: One of the most important characteristics of the A12 analog peptide was its ability to induce a Th2-type cytokine secretion profile. In this set of experiments, DR1 transgenic mice were immunized with A12 peptide or CII emulsified with CFA. […] In contrast, cells from mice immunized with CII generated predominantly a Th1 response to the wild-type peptide. […] The ability to induce the secretion of Th2 cytokines may explain the profound suppressive effects A12 has on the development of CIA.
# One of the most important characteristics of the A12 analog peptide is its ability to reduce a Th1 cytokine profile and induce a Th2-type cytokine secretion profile in humans and in DR1 transgenic mice. In work we have published, DR1 transgenic mice were immunized with A12 peptide or CII emulsified with CFA. […] In contrast, cells from mice immunized with CII generated multiple cytokines, but predominantly a Th1 response to the wild-type peptide. Importantly, although immunized with CII, they responded to A12 with only a Th2 response.
# RA PBMC [4] = assay: APL A12 inhibition of IFNγ production by α1(II)-stimulated RA PBMC; format: cell-based, human; details: for IFNy Stimulation Index: 144 h
# Method: (§1) We assessed the ability of APL A12 added to cultures of PBMC to affect production of IFNγ and other Th1 and Th2 cytokines by the cultured PBMC stimulated with α1(II) from 18 RA patients, 16 of whom had known HLA DR B1 haplotypes. 16 of these patients were taking methothexate, 10 NSAIDS and 12 anti-TNF agents. One patient was taking Arava. Isolated PBMC were resuspended in Dulbecco's minimal essential medium containing penicillin (100 U/ml), streptomycin (100 μg/ml), 9% fetal calf serum (FCS), and non-essential amino acids thereafter referred to as “Complete Medium” at a concentration of 4×10^6 cells/ml. Aliquots (0.5 ml) of the cell suspension were dispensed into wells of 48 well tissue culture plates (NUNC, Roskilde, Denmark).
# DR1 Transgenic mice [5] = assay: Oral (gavage) APL A12 suppression of CIA in DR1 transgenic mice; format: in vivo, mouse; details: for arthritis severity: FIG. 1
# [6] = test system: Peyer's Patch cells of DR1 TCRtg+/+ mice; assay: Oral APL A12: IL-17 and IL-10 in cultures of Peyer's Patch cells of DR1 TCRtg+/+ mice; format: in vivo, mouse
# Zap-70 = Zap-70 phosphorylation in CD4+ T cells of DR1/TCR transgenic mice (flow cytometry); format: cell-based, mouse; details: APCs prepulsed with peptide; data not shown
# RA PBMC [7] = assay: 27 cytokines multiplex assay of 48 h RA PBMC culture supernatants; format: cell-based, human; details: APL A12 10 μg/ml + α1(II) 50 μg/ml, 6 RA patients
# Method: as §1
# DR1 Transgenic mice [8] = assay: Acute toxicity study of HC Peptide 1 in DR1 transgenic mice; format: in vivo, mouse
# [9] = Immunogen Analog A12, cultured with 100 μg/ml A12
# [10] = Immunogen Analog A12, cultured with 100 μg/ml PPD
# [11] = Immunogen Analog A12, cultured with 100 μg/ml Wild-type Peptide
# [12] = Immunogen Analog A12, cultured with 100 μg/ml α1(II)
# [13] = Immunogen CII, cultured with 100 μg/ml A12
# [14] = mice gavaged with 50 μg APL A12 9 times over 2 weeks, cells cultured with PBS
# [15] = mice gavaged with 50 μg APL A12, cells cultured with APL A12 50 μg/ml
# [16] = mice gavaged with 50 μg APL A12, cells cultured with CII263-270 50 μg/ml
# [17] = mice gavaged with PBS, cells cultured with APL A12 50 μg/ml
sequence,measurement,setting,value
LGPKGQTGEBGIAGAKGDQGPKGEBGPA [APL A12],Antibodies to CII,DR1 Transgenic mice [1]; 0.01 mg (so in the source) i.v.,33 ± 11
same,Antibodies to CII,DR1 Transgenic mice [1]; 0.5 mg total i.v.,24 ± 7 (p ≦ 0.025)
same,Antibodies to CII,DR1 Transgenic mice [1]; 1 mg total i.v.,22 ± 9 (p ≦ 0.025)
same,antibody production to CII,DR1 Transgenic mice [1]; DR1-Transgenic mice,significantly decreased
same,Incidence,"DR1 Transgenic mice [1]; 0.01 mg (so in the source) i.v. on days 10, 12, 14 after CII-immunization",5/10
same,Incidence,"DR1 Transgenic mice [1]; 0.5 mg total i.v. on days 10, 12, 14 after CII-immunization",3/10
same,Incidence,"DR1 Transgenic mice [1]; 1 mg total i.v. on days 10, 12, 14 after CII-immunization",1/10 (p = 0.01)
same,immunity to CII and arthritis,DR1 Transgenic mice [1]; high-responder DR1 mice,profoundly suppress
same,incidence of arthritis and number of arthritic limbs,DR1 Transgenic mice [1]; mice immunized with CII plus A12,dose-related decrease
same,IFNγ Levels in Splenocyte Culture,"[2]; mice gavaged with 50 μg APL A12 8 times over 2 weeks, splenocytes cultured with PBS",2 ± 3 pg/mL
same,IFNγ Levels in Splenocyte Culture,"[2]; mice gavaged with 50 μg APL A12, splenocytes cultured with APL A12 50 μg/ml",5 ± 10 pg/mL
same,IFNγ Levels in Splenocyte Culture,"[2]; mice gavaged with 50 μg APL A12, splenocytes cultured with CII263-270 50 μg/ml",12 ± 20 pg/mL
same,IFNγ Levels in Splenocyte Culture,"[2]; mice gavaged with PBS, splenocytes cultured with APL A12 50 μg/ml",65 ± 52 pg/mL
same,IFN-γ,[3]; [9],0 pg/mL
same,IL-10,[3]; [9],808 pg/mL
same,Il-4,[3]; [9],31 pg/mL
same,IFN-γ,[3]; [10],"2,225 pg/ml"
same,IL-10,[3]; [10],248 pg/mL
same,Il-4,[3]; [10],0 pg/mL
same,IFN-γ,[3]; [11],175 pg/mL
same,IL-10,[3]; [11],792 pg/mL
same,Il-4,[3]; [11],23 pg/mL
same,IFN-γ,[3]; [12],0 pg/mL
same,IL-10,[3]; [12],680 pg/mL
same,Il-4,[3]; [12],45 pg/mL
same,IFN-γ,[3]; [13],0 pg/mL
same,IL-10,[3]; [13],610 pg/mL
same,Il-4,[3]; [13],40 pg/mL
same,IFNγ production by RA PBMC,"RA PBMC [4]; APL A12 alone, without α1(II), data not shown",no change from PBS control
same,RA patients who responded to APL A12 in vitro,RA PBMC [4]; NIH oral CII study,50%
same,patients with IFNγ production down-regulated by ≧50%,RA PBMC [4]; patients with the RA susceptibility shared epitope,7 of 10
same,patients with IFNγ production down-regulated by ≧50%,RA PBMC [4]; patients without the shared epitopes,2 of 6
same,IFNy Stimulation Index,"RA PBMC [4]; α1(II) + APL A12 1 μg/ml, individual patients with No Shared Epitope",49 and 45 and 1120 and 928 and 586 and 75
same,IFNy Stimulation Index,"RA PBMC [4]; α1(II) + APL A12 1 μg/ml, individual patients with Shared Epitope",139 and 49 and 742 and 908 and 3190 and 85 and 203 and −65 and −74
same,IFNy Stimulation Index,"RA PBMC [4]; α1(II) + APL A12 1 μg/ml, individual patients, HLA Unknown",42 and 228
same,IFNy Stimulation Index,"RA PBMC [4]; α1(II) + APL A12 10 μg/ml, individual patients with No Shared Epitope",12 and −3 and 1220 and 807 and 479 and 91
same,IFNy Stimulation Index,"RA PBMC [4]; α1(II) + APL A12 10 μg/ml, individual patients with Shared Epitope",291 and 68 and 37 and 1220 and 644 and 2111 and 93 and 110 and −54 and −66
same,IFNy Stimulation Index,"RA PBMC [4]; α1(II) + APL A12 10 μg/ml, individual patients, HLA Unknown",73 and 180
same,IFNy Stimulation Index,"RA PBMC [4]; α1(II) + APL A12 25 μg/ml, individual patients with No Shared Epitope",16 and 50 and 934 and 778 and 357 and 106
same,IFNy Stimulation Index,"RA PBMC [4]; α1(II) + APL A12 25 μg/ml, individual patients with Shared Epitope",15 and 113 and 123 and 493 and 1350 and 2620 and 154 and 83 and −24 and 1
same,IFNy Stimulation Index,"RA PBMC [4]; α1(II) + APL A12 25 μg/ml, individual patients, HLA Unknown",121 and 214
same,arthritis severity,DR1 Transgenic mice [5]; 10 μg gavaged 8 days over two weeks before CII immunization,significantly reduced
same,arthritis severity,DR1 Transgenic mice [5]; 50 μg gavaged 8 days over two weeks before CII immunization,significantly reduced
same,most effective dose,DR1 Transgenic mice [5]; given orally by gavage,50 µg/day
same,development of arthritis induced by immunization with bovine CII,"DR1 Transgenic mice [5]; low oral dose (10-50 μg), mice transgenic for human DR1",protects
same,CII induced arthritis,DR1 Transgenic mice [5]; mice bearing a transgene for human DR1,effective in reducing
same,II-10 Levels in Peyer's Patch Cultures,[6]; [14],116 pg/mL
same,IL-17 Levels in Peyer's Patch Cultures,[6]; [14],2.4 pg/mL
same,II-10 Levels in Peyer's Patch Cultures,[6]; [15],105 pg/mL
same,IL-17 Levels in Peyer's Patch Cultures,[6]; [15],1.8 pg/mL
same,II-10 Levels in Peyer's Patch Cultures,[6]; [16],94 pg/mL
same,IL-17 Levels in Peyer's Patch Cultures,[6]; [16],2.4 pg/mL
same,II-10 Levels in Peyer's Patch Cultures,[6]; [17],27 pg/mL
same,IL-17 Levels in Peyer's Patch Cultures,[6]; [17],16 pg/mL
same,Zap-70 phosphorylation,Zap-70,little effect
same,IL-1ra,RA PBMC [7],2013 ± 220 pg/mL
same,IL-2,RA PBMC [7],6 ± 0.9 pg/mL
same,IL-10,RA PBMC [7],555 ± 104 pg/mL
same,IP-10,RA PBMC [7],114 ± 91 pg/mL
same,PDGF-bb,RA PBMC [7],39 ± 25 pg/mL
same,RANTES,RA PBMC [7],750 ± 183 pg/mL
same,TNFα,RA PBMC [7],84 ± 17 pg/mL
same,complete blood counts (CBC),DR1 Transgenic mice [8]; after 6 days gavage with 100× the human dose vs IV saline,similar
same,"Histologic assessment of internal organs (livers, spleens, kidneys, hearts, lungs)","DR1 Transgenic mice [8]; gavaged for six days with 100× human dose vs IV saline, listed as HC Peptide 1",no difference; also recorded: did not reveal abnormalities
same,"clinical signs of illness, changes in complete blood counts or liver and renal chemistries","DR1 Transgenic mice [8]; oral, 100× the proposed human dose daily for six days",not associated
same,Changes in body weight,"DR1 Transgenic mice [8]; over the six days gavaged with 100× the human dose, vs IV saline",similar

# Reference: patent US9144595B2, “APLs for treating arthritis” (University of Tennessee Research Foundation, priority 2009, dated 2015)
